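In this assay, cells in 96-well plates receive the compound at five concentrations for 48 hours. Endpoints are linearly interpolated between the surrounding concentrations. GI50 is the concentration that inhibits growth by half.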 Active and inactive are the calls of the source. Cut-off read from the data, not from the text of the source: active = GI50 up to about 1.1 µM and inactive = higher.
What was measured:
Experiment in all cases: inhibition of tumour cell growth, NCI panel, 48 h
[1] = test system: UACC-62
[2] = test system: RXF 631
[3] = test system: OVCAR-8
[4] = test system: U-251
[5] = test system: HOP-62
[6] = test system: KM12
[7] = test system: SW-620
[8] = test system: TK-10
[9] = test system: SK-OV-3
[10] = test system: SK-MEL-2
[11] = test system: HCT-15
[12] = test system: SNB-78
[13] = test system: SF-268
[14] = test system: M14
[15] = test system: HT-29
[16] = test system: KM-20L2
[17] = test system: SK-MEL-5
[18] = test system: HOP-18
[19] = test system: UO-31
[20] = test system: CCRF-CEM
[21] = test system: SF-295
[22] = test system: HCC 2998
[23] = test system: XF498
[24] = test system: Malme-3M
[25] = test system: SF-539
[26] = test system: 786-0
[27] = test system: IGROV-1
[28] = test system: OVCAR-4
[29] = test system: ACHN
[30] = test system: NCI-H522
[31] = test system: SK-MEL-28
[32] = test system: OVCAR-3
[33] = test system: K562
[34] = test system: DMS-114
[35] = test system: EKVX
[36] = test system: HCT-116
[37] = test system: RXF 393
[38] = test system: LOX IMVI
[39] = test system: NCI-H23
[40] = test system: HOP-92
[41] = test system: SN12C
[42] = test system: M19-MEL
[43] = test system: OVCAR-5
[44] = test system: A549
[45] = test system: NCI-H460
[46] = test system: LXFL 529
[47] = test system: MOLT-4
[48] = test system: UACC-257
[49] = test system: DLD-1
[50] = test system: NCI-H226
[51] = test system: A498
[52] = test system: SNB-19
[53] = test system: COLO 205
[54] = test system: SNB-75
[55] = test system: SR
[56] = test system: DMS-273
[57] = test system: RPMI-8226
[58] = test system: CAKI-1
[59] = test system: HL-60

With `CO[C@@]12CC(=O)/C(=C(O)\C=C\c3ccccc3)C(=O)[C@]1(OC)Cc1ccccc1O2` the GI50 [1] was 21.9 µM (inactive), the GI50 [2] was 30.3 µM (inactive) and the GI50 [3] was 22.3 µM (inactive). The GI50 [4] was 21.1 µM (inactive), the GI50 [5] was 21.6 µM (inactive) and the GI50 [6] was 19.8 µM (inactive). For the same molecule, the GI50 [7] was 31.3 µM (inactive), the GI50 [8] was 42.8 µM (inactive) and the GI50 [9] was 54 µM (inactive). The GI50 [10] was 36.8 µM (inactive), the GI50 [11] was 20 µM and the GI50 [12] was 30.5 µM (inactive). The GI50 [13] was 27.7 µM (inactive), the GI50 [14] was 28.1 µM (inactive) and the GI50 [15] was 37.5 µM (inactive). The GI50 [16] was 22.4 µM (inactive), the GI50 [17] was 36.5 µM (inactive) and the GI50 [18] was 35.6 µM (inactive). For the same molecule, the GI50 [19] was 40 µM (inactive), the GI50 [20] was 22.4 µM (inactive) and the GI50 [21] was 29.8 µM (inactive). The GI50 [22] was 22.3 µM (inactive), the GI50 [23] was 43 µM (inactive) and the GI50 [24] was 91 µM (inactive). For the same molecule, the GI50 [25] was 24 µM (inactive), the GI50 [26] was 24.7 µM (inactive) and the GI50 [27] was 54 µM (inactive). The GI50 [28] was 53.8 µM (inactive), the GI50 [29] was 25.4 µM (inactive) and the GI50 [30] was 29.9 µM (inactive). The GI50 [31] was 22.4 µM (inactive), the GI50 [32] was 26.2 µM (inactive) and the GI50 [33] was 33.7 µM (inactive). The GI50 [34] was 44.8 µM (inactive), the GI50 [35] was 38.5 µM (inactive) and the GI50 [36] was 30.1 µM (inactive). The GI50 [37] was 18.8 µM (inactive), the GI50 [38] was 32.3 µM (inactive) and the GI50 [39] was 20.6 µM (inactive). The GI50 [40] was 48.6 µM (inactive), the GI50 [41] was 30.6 µM (inactive) and the GI50 [42] was 37.5 µM (inactive). The GI50 [43] was 41.7 µM (inactive), the GI50 [44] was 25.7 µM (inactive) and the GI50 [45] was 28.9 µM (inactive). The GI50 [46] was 33.7 µM (inactive), the GI50 [47] was 29.7 µM (inactive) and the GI50 [48] was 30.1 µM (inactive). The GI50 [49] was 32.2 µM (inactive), the GI50 [50] was 22.5 µM (inactive) and the GI50 [51] was 33.3 µM (inactive). The GI50 [52] was 30.1 µM (inactive), the GI50 [53] was 47.5 µM (inactive) and the GI50 [54] was 77.1 µM (inactive).
With `CCOC(=O)NC(=O)c1cn(C2OC(COC(=O)CCCCCCCCC(=O)OCC3OC(n4cc(C(=O)NC(=O)OCC)c(=O)[nH]c4=O)C4OC(C)(C)OC34)C3OC(C)(C)OC32)c(=O)[nH]c1=O` (centres undefined) the GI50 [1] was > 100 µM (inactive), the GI50 [2] was > 100 µM (inactive) and the GI50 [3] was 78 µM (inactive). The GI50 [55] was 78.5 µM (inactive), the GI50 [56] was 60.1 µM (inactive) and the GI50 [57] was 44 µM (inactive). The GI50 [5] was > 100 µM (inactive), the GI50 [6] was 73.8 µM (inactive) and the GI50 [7] was 35.8 µM (inactive). For the same molecule, the GI50 [58] was > 100 µM (inactive), the GI50 [8] was > 100 µM (inactive) and the GI50 [10] was 52.1 µM (inactive). The GI50 [11] was > 100 µM, the GI50 [12] was > 100 µM (inactive) and the GI50 [13] was 70.5 µM (inactive). For the same molecule, the GI50 [14] was 63.4 µM (inactive), the GI50 [15] was 79.8 µM (inactive) and the GI50 [16] was 67.6 µM (inactive). The GI50 [17] was 54.1 µM (inactive), the GI50 [18] was > 100 µM (inactive) and the GI50 [19] was > 100 µM (inactive). For the same molecule, the GI50 [20] was 30.1 µM (inactive), the GI50 [21] was > 100 µM (inactive) and the GI50 [22] was 57.3 µM (inactive). For the same molecule, the GI50 [23] was 67.1 µM (inactive), the GI50 [59] was 63.5 µM (inactive) and the GI50 [24] was > 100 µM (inactive). The GI50 [25] was > 100 µM (inactive), the GI50 [26] was > 100 µM (inactive) and the GI50 [27] was > 100 µM (inactive). The GI50 [28] was 57 µM (inactive), the GI50 [29] was > 100 µM (inactive) and the GI50 [31] was 84.1 µM (inactive). The GI50 [32] was 75.9 µM (inactive), the GI50 [33] was 40.8 µM (inactive) and the GI50 [34] was 93.1 µM (inactive). For the same molecule, the GI50 [35] was > 100 µM (inactive), the GI50 [36] was 39.6 µM (inactive) and the GI50 [37] was > 100 µM (inactive). For the same molecule, the GI50 [38] was > 100 µM (inactive), the GI50 [39] was > 100 µM (inactive) and the GI50 [40] was 67.1 µM (inactive). For the same molecule, the GI50 [41] was 83.8 µM (inactive), the GI50 [42] was 26.9 µM (inactive) and the GI50 [43] was > 100 µM (inactive). The GI50 [44] was 90.4 µM (inactive), the GI50 [45] was > 100 µM (inactive) and the GI50 [46] was 88.5 µM (inactive). The GI50 [47] was 35.6 µM (inactive), the GI50 [48] was > 100 µM (inactive) and the GI50 [49] was > 100 µM (inactive). For the same molecule, the GI50 [50] was 77.4 µM (inactive), the GI50 [51] was > 100 µM (inactive) and the GI50 [52] was 51.6 µM (inactive). The GI50 [54] was 56.9 µM (inactive).
`CCOC(=O)NC(=O)c1cn(CCOC(=O)CCCCCCCCC(=O)OCCn2cc(C(=O)NC(=O)OCC)c(=O)[nH]c2=O)c(=O)[nH]c1=O` was tested, and the GI50 [1] was > 100 µM (inactive), the GI50 [2] was > 100 µM (inactive) and the GI50 [3] was > 100 µM (inactive). The GI50 [55] was > 100 µM (inactive), the GI50 [56] was > 100 µM (inactive) and the GI50 [57] was > 100 µM (inactive). The GI50 [5] was > 100 µM (inactive), the GI50 [6] was > 100 µM (inactive) and the GI50 [7] was > 100 µM (inactive). For the same molecule, the GI50 [58] was > 100 µM (inactive), the GI50 [8] was > 100 µM (inactive) and the GI50 [10] was > 100 µM (inactive). The GI50 [11] was > 100 µM, the GI50 [12] was > 100 µM (inactive) and the GI50 [13] was > 100 µM (inactive). The GI50 [14] was > 100 µM (inactive), the GI50 [15] was > 100 µM (inactive) and the GI50 [16] was > 100 µM (inactive). For the same molecule, the GI50 [17] was > 100 µM (inactive), the GI50 [18] was > 100 µM (inactive) and the GI50 [19] was > 100 µM (inactive). For the same molecule, the GI50 [20] was > 100 µM (inactive), the GI50 [21] was > 100 µM (inactive) and the GI50 [22] was > 100 µM (inactive). The GI50 [23] was > 100 µM (inactive), the GI50 [59] was > 100 µM (inactive) and the GI50 [24] was > 100 µM (inactive). The GI50 [25] was > 100 µM (inactive), the GI50 [26] was > 100 µM (inactive) and the GI50 [27] was > 100 µM (inactive). For the same molecule, the GI50 [28] was > 100 µM (inactive), the GI50 [29] was > 100 µM (inactive) and the GI50 [31] was > 100 µM (inactive). For the same molecule, the GI50 [32] was > 100 µM (inactive), the GI50 [33] was > 100 µM (inactive) and the GI50 [34] was > 100 µM (inactive). The GI50 [35] was > 100 µM (inactive), the GI50 [36] was > 100 µM (inactive) and the GI50 [37] was > 100 µM (inactive). For the same molecule, the GI50 [38] was > 100 µM (inactive), the GI50 [39] was 23.9 µM (inactive) and the GI50 [40] was > 100 µM (inactive). The GI50 [41] was > 100 µM (inactive), the GI50 [42] was > 100 µM (inactive) and the GI50 [43] was > 100 µM (inactive). The GI50 [44] was > 100 µM (inactive), the GI50 [45] was > 100 µM (inactive) and the GI50 [46] was > 100 µM (inactive). The GI50 [47] was > 100 µM (inactive), the GI50 [48] was > 100 µM (inactive) and the GI50 [49] was > 100 µM (inactive). For the same molecule, the GI50 [50] was > 100 µM (inactive), the GI50 [51] was > 100 µM (inactive) and the GI50 [52] was > 100 µM (inactive). For the same molecule, the GI50 [54] was > 100 µM (inactive).

Reference: ChEMBL document CHEMBL1201862, “PubChem BioAssay data set” (2004)
